Entries after “also recorded” stand apart in the source; their conditions may differ.
Experiments:
[1] = test system: SK-Br3 breast cancer cells; assay: MTT cytotoxicity assay, SK-Br3 breast cancer cells; format: cell-based, human; conditions: Homo sapiens, SK-BR-3, 48 h, MTT, 48 h, read-out: IC50, growth inhibition, SK-Br3
Method: (§1) MCF-7 and MDA-MB-231 breast cancer cells were obtained from the American Type Culture Collection (ATCC) and were routinely grown in Dulbecco's modified Eagle's medium (DMEM, Gibco) containing 10% fetal bovine serum (FBS, Bio-Whittaker), 1% L-glutamine, 1% sodium pyruvate, 50 U/mL penicillin and 50 μg/mL streptomycin. SK-Br3 breast cancer cells were obtained from Eucellbank (Universidad de Barcelona, Spain) and were passaged in McCoy's 5 A medium containing 10% FBS, 1% L-glutamine, 1% sodium pyruvate, 50 U/mL penicillin and 50 μg/mL streptomycin. Non-malignant fibroblasts N-1 were obtained from Eucellbank (Universidad de Barcelona, Spain) and were passaged in DMEM medium containing 10% FBS, 1% L-glutamine, 1% sodium pyruvate, 50 U/mL penicillin and 50 μg/mL streptomycin. The cells remained free of Mycoplasma and were propagated in adherent culture according to established protocols. Cells were maintained at 37° C. in a humidified atmosphere of 95% air and 5% CO2.
(§2) Drug sensitivity was determined using a standard colorimetric MTT (3-4,5-dimethylthiazol-2-yl-2,5-diphenyltetrazolium bromide) assay. Briefly, cells were plated out at a density of 7×10^3 cells/100 μL/well in 96-well microtitre plates and allowed an overnight period for attachment. Then the medium was removed and fresh medium along with various concentrations of the tested compound were added to the cultures for a period of 48 h. Following the treatment, the cells were fed with drug-free medium (100 μL/well) and 10 μL of MTT solution (5 mg/mL; Sigma, St. Louis, Mo.), and the incubation was prolonged for 3 h at 37° C. After carefully removing the supernatants, the MTT-formazan crystals formed by metabolically viable cells were dissolved in dimethyl sulphoxide (100 μL/well) and the absorbance was measured at 570 nm in a multi-well plate reader (Model Anthos Labtec 2010 1.7 reader).

[2] = test system: MCF-7 breast cancer cells; assay: MTT cytotoxicity assay, MCF-7 breast cancer cells; format: cell-based, human; conditions: Homo sapiens, MCF7, MCF-7 cells, 48 h, read-out: IC50, growth inhibition, MCF-7
Method: as §1, §2

[3] = test system: MDA-MB-231 breast cancer cells; assay: MTT cytotoxicity assay, MDA-MB-231 breast cancer cells; format: cell-based, human; conditions: Homo sapiens, MDA-MB-231 cells, 48 h, read-out: IC50, growth inhibition, MDA-MB-231
Method: as §1, §2

[4] = test system: Non-malignant fibroblasts N-1; assay: MTT cytotoxicity assay, non-malignant fibroblasts N-1; format: cell-based; conditions: for IC50: Fibroblast, non-malignant fibroblasts, MTT, 48 h, read-out: IC50, growth inhibition, Fibroblasts; for effects in cell death / morphology changes in non-malignant cells: up to doses three-fold their cytotoxic IC50 value in tumoral cells
Method: as §1, §2

FASN = target: T1, FASN (Homo sapiens, UniProt P49327); assay: Fatty acid synthase activity assay in SK-Br3 cells (NADPH oxidation, particle-free supernatants); format: cell-based; design: FASN activity, % of control cells / FASN activity reduced to / reduction of FASN activity: concentration or dose not given beside the values; conditions: for inhibition of FASN activity (in words): SK-Br3 cells treated 6, 12 and 24 hours; for FASN activity reduced to: 12 h exposure
T1 construct: endogenous in cells; host or cells: SK-Br3 breast cancer cells
T1 sequence (P49327 whole entry): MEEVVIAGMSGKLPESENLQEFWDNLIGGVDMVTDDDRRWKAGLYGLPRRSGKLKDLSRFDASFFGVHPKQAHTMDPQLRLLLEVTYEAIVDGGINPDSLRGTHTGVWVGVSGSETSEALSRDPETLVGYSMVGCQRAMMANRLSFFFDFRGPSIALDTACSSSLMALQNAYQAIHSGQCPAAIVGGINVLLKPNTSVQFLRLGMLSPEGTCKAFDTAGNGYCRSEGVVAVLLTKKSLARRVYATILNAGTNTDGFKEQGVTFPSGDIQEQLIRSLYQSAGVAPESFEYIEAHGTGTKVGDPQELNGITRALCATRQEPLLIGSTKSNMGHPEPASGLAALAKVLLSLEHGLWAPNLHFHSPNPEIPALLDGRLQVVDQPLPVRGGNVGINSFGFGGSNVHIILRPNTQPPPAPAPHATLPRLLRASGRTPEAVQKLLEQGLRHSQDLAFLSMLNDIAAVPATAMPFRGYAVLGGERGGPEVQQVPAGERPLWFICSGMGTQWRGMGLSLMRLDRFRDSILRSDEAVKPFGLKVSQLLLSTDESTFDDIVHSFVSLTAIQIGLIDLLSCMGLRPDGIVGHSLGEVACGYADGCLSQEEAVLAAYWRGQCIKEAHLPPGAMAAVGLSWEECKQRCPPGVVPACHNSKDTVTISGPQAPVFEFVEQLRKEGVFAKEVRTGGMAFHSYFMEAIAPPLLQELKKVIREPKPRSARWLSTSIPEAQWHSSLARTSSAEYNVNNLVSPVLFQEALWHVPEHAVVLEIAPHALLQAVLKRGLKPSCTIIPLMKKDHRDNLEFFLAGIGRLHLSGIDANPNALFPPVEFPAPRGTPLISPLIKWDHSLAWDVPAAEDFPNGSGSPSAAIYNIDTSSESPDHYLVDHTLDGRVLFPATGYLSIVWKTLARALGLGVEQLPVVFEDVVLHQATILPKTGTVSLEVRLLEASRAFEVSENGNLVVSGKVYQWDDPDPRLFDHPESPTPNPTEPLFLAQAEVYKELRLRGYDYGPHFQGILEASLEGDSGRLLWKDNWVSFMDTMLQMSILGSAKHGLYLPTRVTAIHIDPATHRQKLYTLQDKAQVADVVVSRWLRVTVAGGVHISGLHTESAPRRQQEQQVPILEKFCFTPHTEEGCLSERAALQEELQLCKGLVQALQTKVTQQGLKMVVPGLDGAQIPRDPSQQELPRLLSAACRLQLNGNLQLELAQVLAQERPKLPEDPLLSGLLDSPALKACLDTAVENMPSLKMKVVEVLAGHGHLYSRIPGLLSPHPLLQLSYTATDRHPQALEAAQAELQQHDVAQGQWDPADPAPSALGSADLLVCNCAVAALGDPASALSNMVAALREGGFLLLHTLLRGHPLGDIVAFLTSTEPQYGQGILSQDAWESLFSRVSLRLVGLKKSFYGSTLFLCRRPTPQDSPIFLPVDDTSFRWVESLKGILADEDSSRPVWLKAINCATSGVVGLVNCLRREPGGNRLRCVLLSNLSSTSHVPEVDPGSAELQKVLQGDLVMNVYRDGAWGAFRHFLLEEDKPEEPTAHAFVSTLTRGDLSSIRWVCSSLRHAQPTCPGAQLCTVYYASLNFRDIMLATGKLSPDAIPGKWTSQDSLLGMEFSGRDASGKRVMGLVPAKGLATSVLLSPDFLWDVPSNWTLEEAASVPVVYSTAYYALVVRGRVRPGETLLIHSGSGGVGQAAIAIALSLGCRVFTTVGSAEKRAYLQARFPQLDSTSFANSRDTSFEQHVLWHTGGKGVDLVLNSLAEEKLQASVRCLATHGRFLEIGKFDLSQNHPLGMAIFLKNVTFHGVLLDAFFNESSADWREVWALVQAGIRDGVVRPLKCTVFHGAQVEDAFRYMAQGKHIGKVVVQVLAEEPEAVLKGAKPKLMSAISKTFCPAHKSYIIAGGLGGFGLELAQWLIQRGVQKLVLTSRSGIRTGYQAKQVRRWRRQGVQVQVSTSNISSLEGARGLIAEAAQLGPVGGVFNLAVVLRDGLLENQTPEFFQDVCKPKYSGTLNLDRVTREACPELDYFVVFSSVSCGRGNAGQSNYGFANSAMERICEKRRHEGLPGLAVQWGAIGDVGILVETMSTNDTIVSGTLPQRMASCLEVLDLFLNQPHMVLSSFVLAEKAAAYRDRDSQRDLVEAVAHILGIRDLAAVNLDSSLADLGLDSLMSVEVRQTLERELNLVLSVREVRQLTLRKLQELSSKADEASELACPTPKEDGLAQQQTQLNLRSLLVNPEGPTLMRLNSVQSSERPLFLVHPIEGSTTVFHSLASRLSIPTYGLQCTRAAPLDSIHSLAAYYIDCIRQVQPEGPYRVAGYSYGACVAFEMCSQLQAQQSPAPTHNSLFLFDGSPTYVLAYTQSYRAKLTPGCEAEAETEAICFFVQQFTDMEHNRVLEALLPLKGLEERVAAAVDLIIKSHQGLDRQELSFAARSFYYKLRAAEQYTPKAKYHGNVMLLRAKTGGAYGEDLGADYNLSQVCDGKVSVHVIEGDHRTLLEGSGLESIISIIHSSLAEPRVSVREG
Method: FASN activity of compounds a, b, e, f, h, i, k, m and q was assayed in particle-free supernatants by recording spectrophotometrically at 37° C. (Lambda Bio 20, Perkin Elmer, EUA; using UV Kinlab 2.80.02 software) the decrease of A340nm due to the oxidation of NADPH, as we previously described. After 6, 12, 24 h of exposure to the tested compound, the cells were harvested by treatment with trypsin-EDTA solution, pelleted by centrifugation, washed twice and resuspended in cold PBS. The cells were sonicated during 30 min at 4° C. (PSelecta ultrasons) and centrifuged for 15 min at 4° C. to keep supernatants particle-free. A sample was taken to measure the protein content by a BioRad assay (Bio-Rad Laboratories). One-hundred and twenty micrograms of protein were pre-incubated during 15 min at 37° C. in 0.2 M of potassium phosphate buffer, pH 7.0, for temperature equilibration. The sample was then added to the reaction mixture: 200 mM potassium phosphate buffer, pH 7.0, 1 mM EDTA (Sigma), 1 mM dithiothreitol (Sigma), 30 μM acetyl-CoA (Sigma), 0.24 mM NADPH (Sigma), in 0.3 mL reaction volume were monitored at 340 nm for 3 min to measure the background NADPH oxidation. After the addition of 50 μM of malonyl-CoA (Sigma), the reaction was assayed for additional 10 min to determine FASN-dependent oxidation of NADPH. Rates were corrected for the background rate of NADPH oxidation in the presence of acetyl-CoA. FASN activity was expressed in nmol NADPH oxidized min^−1 mg protein^−1.

melting point	SMILES	IC50 [1] [µM]	IC50 [2] [µM]	IC50 [3] [µM]	IC50 [4] [µM]	effects in cell death / morphology changes in non-malignant cells [4]	inhibition of FASN activity (in words) (FASN)	FASN activity reduced to (FASN; SK-Br3 cells) [%]	FASN activity, % of control cells (FASN; SK-Br3 cells, 24 h exposure) [%]
204 °C (dec.)	Cc1c(O)cc(C(=O)Oc2ccc(OC(=O)c3cc(O)c(C)c(O)c3)c3c2CCCC3)cc1O [aa, 1,4-bis[(3,5-dihydroxy-4-methylbenzoyl)oxy]-5,6,7,8-tetrahydronaphthalene]	49.5 ± 4.9							
	Cc1cc(OC(=O)c2cc(O)c(O)c(O)c2)ccc1OC(=O)c1cc(O)c(O)c(O)c1 [c, 2-methyl-1,4-bis[(3,4,5-trihydroxybenzoyl)oxy]benzene]	23.3 ± 2.1	4.5	54.7 ± 7.6	> 100	No significant effects			
	COC(=O)c1cc(OC(=O)c2cc(O)c(O)c(O)c2)c2ccccc2c1OC(=O)c1cc(O)c(Br)c(O)c1 [cc, methyl 1-[(4-bromo-3,5-dihydroxybenzoyl)oxy]-4-[(3,4,5-trihydroxybenzoyl)oxy]-2-naphthoate]	16.5 ± 4.9			91.5 ± 2.1	No significant effects			
	COc1cc(OC(=O)c2cc(O)c(O)c(O)c2)ccc1OC(=O)c1cc(O)c(O)c(O)c1 [d, 2-methoxy-1,4-bis[(3,4,5-trihydroxybenzoyl)oxy]benzene]	8.3 ± 1.1	30 ± 0.1	28 ± 1	> 50	No significant effects			
	COC(=O)c1cc(OC(=O)c2cc(O)c(O)c(O)c2)c2ccccc2c1OC(=O)c1cccc(O)c1 [dd, methyl 1-[(3-hydroxybenzoyl)oxy]-4-[(3,4,5-trihydroxybenzoyl)oxy]-2-naphthoate]	15.5 ± 3.5			39.5 ± 6.4	No significant effects			
	COC(=O)c1cc(OC(=O)c2cc(O)c(O)c(O)c2)c2ccccc2c1OC(=O)c1ccc(O)cc1 [ee, methyl 1-[(4-hydroxybenzoyl)oxy]-4-[(3,4,5-trihydroxybenzoyl)oxy]-2-naphthoate]	33 ± 1.4			67.5 ± 4.9	No significant effects			
167 to 169 °C	O=C(Oc1cc(OC(=O)c2cc(O)cc(O)c2)c2ccccc2c1)c1cc(O)cc(O)c1 [g, 1,3-bis[(3,5-dihydroxybenzoyl)oxy]naphthalene]	107 ± 29.7		121 ± 5.7					
	O=C(Oc1cc(OC(=O)c2ccc(O)c(O)c2)c2ccccc2c1)c1ccc(O)c(O)c1 [h, 1,3-bis[(3,4-dihydroxybenzoyl)oxy]naphthalene]	20.7 ± 11.5		19 ± 1.1	105	No significant effects	inhibit FASN activity	77	
201 to 203 °C	O=C(Oc1ccc(OC(=O)c2cc(O)cc(O)c2)c2ccccc12)c1cc(O)cc(O)c1 [j, 1,4-bis[(3,5-dihydroxybenzoyl)oxy]naphthalene]	115 ± 7.1		24 ± 0.9					
	O=C(Oc1ccc(OC(=O)c2ccc(O)c(O)c2)c2ccccc12)c1ccc(O)c(O)c1 [k, 1,4-bis[(3,4-dihydroxybenzoyl)oxy]naphthalene]	37.5 ± 6.4	49.3 ± 10	27 ± 11.3	68	No significant effects	inhibit FASN activity	44	
	O=C(Oc1ccc2cc(OC(=O)c3cc(O)c(O)c(O)c3)ccc2c1)c1cc(O)c(O)c(O)c1 [l, 2,6-bis[(3,4,5-trihydroxybenzoyl)oxy]naphthalene]	5.5 ± 1	13 ± 1.8	15.3 ± 1	> 200	No significant effects			
	O=C(Oc1cccc2c(OC(=O)c3cc(O)c(O)c(O)c3)cccc12)c1cc(O)c(O)c(O)c1 [m, 1,5-bis[(3,4,5-trihydroxybenzoyl)oxy]naphthalene]	25.7 ± 3	69 ± 14	186 ± 10	> 150	No significant effects	inhibit FASN activity; also recorded: decreased in a time-dependent manner	77	76
285 °C (dec.)	O=C(Oc1ccc(-c2ccc(OC(=O)c3cc(O)nc(O)c3)cc2)cc1)c1cc(O)nc(O)c1 [r, 4,4′-bis[(2,6-dihydroxyisonicotinoyl)oxy]-1,1′-biphenyl]								
	O=C(Oc1ccc(-c2ccc(OC(=O)c3cc(O)cc(O)c3)cc2)cc1)c1cc(O)cc(O)c1 [s, 4,4′-bis[(3,5-dihydroxybenzoyl)oxy]-1,1′-biphenyl]	7.3 ± 2		5.75 ± 2	33 ± 3	No significant effects			
286 °C (dec.)	O=C(Oc1ccc(-c2ccc(OC(=O)c3ccc(O)c(O)c3)cc2)cc1)c1ccc(O)c(O)c1 [t, 4,4′-bis[(3,4-dihydroxybenzoyl)oxy]-1,1′-biphenyl]	90							
252 to 254 °C	O=C(Oc1ccc(-c2ccc(OC(=O)c3cc(O)c(Br)c(O)c3)cc2)cc1)c1ccc(O)c(O)c1 [u, 4′[(3,4-dihydroxybenzoyl)oxy]-1,1′-biphenyl-4-yl 4-bromo-3,5-dihydroxybenzoate]	31							
240 °C (dec.)	COc1cc(C(=O)Oc2ccc(-c3ccc(OC(=O)c4ccc(O)c(O)c4)cc3)cc2)cc(O)c1O [v, 4′[(3,4-dihydroxybenzoyl)oxy]-1,1′-biphenyl-4-yl 3,4-dihydroxy-5-methoxybenzoate]	< 1							
	O=C(Oc1cc(OC(=O)c2cc(O)c(Br)c(O)c2)c2ccccc2c1)c1cc(O)c(Br)c(O)c1 [w, 1,3-bis[(4-bromo-3,5-dihydroxybenzoyl)oxy]naphthalene]	46.7 ± 11.7			79.5 ± 14.8	No significant effects			
260 °C (dec.)	COc1cc(C(=O)Oc2cc(OC(=O)c3cc(O)c(O)c(OC)c3)c3ccccc3c2)cc(O)c1O [x, 1,3-bis[(3,4-dihydroxy-5-methoxybenzoyl)oxy]naphthalene]	3							
	O=C(Oc1cc2c(c(OC(=O)c3cc(O)c(O)c(O)c3)c1)CCCC2)c1cc(O)c(O)c(O)c1 [y, 1,3-bis[(3,4,5-trihydroxybenzoyl)oxy]-5,6,7,8-tetrahydronaphthalene]	31 ± 3	81 ± 16	98 ± 11	> 150	No significant effects			
	O=C(Oc1ccc(OC(=O)c2cc(O)c(O)c(O)c2)c2c1CCCC2)c1cc(O)c(O)c(O)c1 [z, 1,4-bis[(3,4,5-trihydroxybenzoyl)oxy]-5,6,7,8-tetrahydronaphthalene]	41 ± 3	43 ± 10	104 ± 10	128 ± 32	No significant effects			

Reference: patent US20100190856A1, “Novel Polyhydroxylated Compounds as Fatty Acid Synthase (FASN) Inhibitors” (UNIVERSIDAD COMPLUTENSE DE MADRID, priority 2007, published 2010)
